What was measured:
[1] = molecular target: T1, MMP-8 (Homo sapiens, UniProt P22894); assay: Assay for inhibitory activities on MMPs (fluorogenic peptide substrate), MMP-8; assay type: biochemical; settings: catalytic domain 99Phe-262Gly; substrate MOCAc-Pro-Leu-Gly-Leu-A2Pr(DNP)-Ala-Arg-NH2
T1 construct: catalytic domain (^99Phe˜^262Gly) was amplified with PCR; His-tag; enterokinase digestion-site; made in house; host or cells: Escherichia coli
Excerpt: In regard to MMP-8, catalytic domain (^99Phe˜^262Gly) was amplified with PCR using commercial available Human Bone Marrow cDNA. This was cloned in Escherichia. coli expression vector pTrc99AHE inserted with His-tag sequence and enterokinase digestion-site, induced and expressed by IPTG (Isopropyl-β-D-thiogalactopyranoside) and expressed in a insoluble fraction (Thau F. Ho, M. Walid Qoronfleh, Robert C. Wahl, Trica A. Pulvino, Karen J. Vavra, Joe Falvo, Tracey M. Banks, Patricia G. Brake and Richard B. Ciccarelli: Gene expression, purification and characterization of recombinant human neutrophil collagenase. Gene 146, (1994) 297-301, Prepared by the a improved method of this material). Isolation of MMP-8 from an insoluble fraction was carried out by dissolving in modifier (6M urea) by a usual method and purification with metal chelate chromatography. And then removing modifier (6M urea) with dialysis and refolding of the enzyme spontaneously gave activated MMP-8.
(§1) The enzymatic activity on MMPs was analyzed by the method described in “C. Graham Knight, Frances Willenbrock and Gillian Murphy: A novel coumarin-labelled peptide for sensitive continuous assays of the matrix metalloproteinases: FEBS LETT., 296, (1992), 263-266”. The substrate MOCAc-Pro-Leu-Gly-Leu-A2Pr(DNP)-Ala-Arg-NH2 was purchased from Peptide Institute, Inc., Osaka, Japan. The measurement of the inhibitory activities (IC50) was carried out by the following four methods;
(§2) (A) Reaction with substrate, enzyme (MMPs) and inhibitor
(§3) (B) Reaction with substrate and inhibitor, without enzyme
(§4) (C) Reaction with substrate and enzyme (MMPs), without inhibitor
(§5) (D) Reaction with substrate only
(§6) IC50 values were calculated by using the following formula and each fluorescence values of above four methods (A to D). % inhibition={1−(A−B)/(C−D)}×100 IC50 means the concentration required to inhibit 50% of the enzyme activity.

[2] = molecular target: T2, MMP-13 (Homo sapiens, UniProt P45452); assay: Assay for inhibitory activities on MMPs (fluorogenic peptide substrate), MMP-13; assay type: biochemical; settings: catalytic domain 104Tyr-267Gly; substrate MOCAc-Pro-Leu-Gly-Leu-A2Pr(DNP)-Ala-Arg-NH2
T2 construct: catalytic domain (^104Tyr˜^267Gly) was amplified with RT-PCR; His-tag; enterokinase digestion-site; made in house; host or cells: Escherichia coli
Procedure: (§7) In regard to MMP-13, mRNA was prepared from carcinoma cell SW1353 derived from human cartilage stimulate by IL-1, TNF and catalytic domain (^104Tyr˜^267Gly) was amplified with RT-PCR. This was cloned in Escherichia. coli expression vector pTrc99AHE inserted with His-tag sequence and enterokinase digestion-site, induced and expressed by IPTG (Isopropyl-β-D-thiogalactopyranoside) and expressed in a insoluble fraction. Isolation of MMP-13 from an insoluble fraction was carried out by dissolving in modifier (6M urea) by a usual method and purification with metal chelate chromatography (Ni Chelateing Sepharose). And then removing modifier (6M urea) with dialyze and refolding of the enzyme spontaneously gave activated MMP-13.
as §1, §2, §3, §4, §5, §6

[3] = molecular target: T3, MMP-12 (Homo sapiens, UniProt P39900); assay: Assay for inhibitory activities on MMPs (fluorogenic peptide substrate), MMP-12; assay type: biochemical; settings: catalytic domain 100Phe-263Gly; substrate MOCAc-Pro-Leu-Gly-Leu-A2Pr(DNP)-Ala-Arg-NH2
T3 construct: catalytic domain(^100Phe˜^263Gly) was amplified with RT-PCR; His-tag; enterokinase digestion-site; made in house; host or cells: Escherichia coli
Procedure: as §7, with “MMP-12,” for “MMP-13, mRNA was prepared from carcinoma cell SW1353 derived from human cartilage stimulate by IL-1, TNF and”, “domain(^100Phe˜^263Gly)” for “domain (^104Tyr˜^267Gly)”, “RT-PCR from Human Placenta Total RNA.” for “RT-PCR.”, “MMP-12” for “MMP-13”, “dialysis” for “dialyze”, “MMP-12.” for “MMP-13.”
as §1, §2, §3, §4, §5, §6

[4] = molecular target: T4, MMP-9 (Homo sapiens, UniProt P14780); assay: Assay for inhibitory activities on MMPs (fluorogenic peptide substrate), MMP-9; assay type: biochemical; settings: MMP-9 from HT1080 cells, activated by TPCK-Trypsin; substrate MOCAc-Pro-Leu-Gly-Leu-A2Pr(DNP)-Ala-Arg-NH2
T4 construct: endogenous in cells; host or cells: HT1080 human fibrosarcoma cells, TPA-stimulated; enzyme purified from conditioned medium
Excerpt: MMP-9 was isolated and purified by procedures described in as follows: Yasunori Okada, Yukio Gonoji, Katsumi Naka, Katsuro Tomita, Isao Nakanishi, Kazushi Iwata, Kyoko Yamashita, and Taro Hayakawa: Matrix metalloproteinase 9 (92-kDa gelatinase/type IV collagenase) from HT1080 human fibrosarcoma cells. Purification and activation of the precursor and enzymic properties J. Biol. Chem., 1992, 267 21712-21719, in combination with others: 1)Yasunori Okada, Tatsuhisa Morodomi, Jan J, Enghild, ko Suzuki, Atsushi Yasui, Isao Nakanishi, Guy Salvesen and Hideaki Nagase: Matrix metalloproteinase 2 from human rheumatoid synovial fibroblasts. Purification and activation of the precursor and enzymic properties. Eur. J. Biochem. 1990, 194 721-730; 2)Robin V Ward, Rosalind M Hembry, John J Reynolds and Gillian Murphy: The purification of tissue inhibitor of metalloproteinase-2 from its 72 kDa progelatinase complex. Biochem. J. 1991 278 179-187. In detail, human fibrosarcoma ATCC HT1080 cell line was cultured to confluent in Dulbecco's Modified Medium (DMEM) containing 10% fetal-calf serum at 37° C. for 48 hours. Subsequently, the medium of confluent culture was changed to serum-free DMEM medium. To obtain MMP-9, Phorbol-12-myristate-13-acetate (TPA) must be added to this serum-free DMEM medium at a concentration of 50 ng/ml. The TPA treated medium was centrifuged at 3000 rpm for 15 min and the supernatant was concentrated to 450 ml by a Toyo-Roshi UP-20 apparatus with an ultrafiltration membrane. Then, proMMP-9 in this concentrated solution was purified by using columns of Gelatin-Sepharose and Concanavalin A-Sepharose. The pool containing proMMP-9 was dialyzed, concentrated (Toyo-Roshi UP-20) and applied to columns of Sephacryl S-200 and Green A matrix for the separation from TIMPs. The obtained proMMP-9 fraction was activated by TPCK-Trypsin (Final conc. 3 μg/501 μl React Mix.).
as §1, §2, §3, §4, §5, §6

[5] = molecular target: T5, MMP-2 (Homo sapiens, UniProt P08253); assay: Assay for inhibitory activities on MMPs (fluorogenic peptide substrate), MMP-2; assay type: biochemical; settings: purchased MMP-2; substrate MOCAc-Pro-Leu-Gly-Leu-A2Pr(DNP)-Ala-Arg-NH2
T5 construct: purchased Calbiochem-Novabiochem International, Inc
T5 sequence (P08253 110-660): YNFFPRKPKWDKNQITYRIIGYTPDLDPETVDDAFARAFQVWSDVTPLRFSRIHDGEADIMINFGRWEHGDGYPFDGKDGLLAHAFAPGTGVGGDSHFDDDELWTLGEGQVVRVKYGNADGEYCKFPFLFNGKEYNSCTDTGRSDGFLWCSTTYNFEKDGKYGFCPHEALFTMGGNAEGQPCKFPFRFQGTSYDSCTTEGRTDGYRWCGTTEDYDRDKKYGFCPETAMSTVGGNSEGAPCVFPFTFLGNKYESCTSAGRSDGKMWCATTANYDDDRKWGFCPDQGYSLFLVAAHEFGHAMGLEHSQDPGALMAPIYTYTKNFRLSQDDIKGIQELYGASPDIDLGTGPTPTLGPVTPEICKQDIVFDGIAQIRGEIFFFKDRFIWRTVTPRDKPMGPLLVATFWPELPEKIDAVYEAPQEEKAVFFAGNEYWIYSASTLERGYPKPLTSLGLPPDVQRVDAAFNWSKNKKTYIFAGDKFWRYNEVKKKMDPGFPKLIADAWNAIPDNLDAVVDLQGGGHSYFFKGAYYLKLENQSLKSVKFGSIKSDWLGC
Procedure: MMP-2 was purchased from Calbiochem-Novabiochem International, Inc.
as §1, §2, §3, §4, §5, §6

T3 sequence (P39900 100-263): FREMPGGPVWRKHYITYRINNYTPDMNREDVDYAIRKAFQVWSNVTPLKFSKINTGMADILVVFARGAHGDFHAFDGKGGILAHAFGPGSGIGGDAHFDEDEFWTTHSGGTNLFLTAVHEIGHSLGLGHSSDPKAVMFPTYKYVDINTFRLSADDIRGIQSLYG
T4 sequence (P14780 107-707 limits assumed): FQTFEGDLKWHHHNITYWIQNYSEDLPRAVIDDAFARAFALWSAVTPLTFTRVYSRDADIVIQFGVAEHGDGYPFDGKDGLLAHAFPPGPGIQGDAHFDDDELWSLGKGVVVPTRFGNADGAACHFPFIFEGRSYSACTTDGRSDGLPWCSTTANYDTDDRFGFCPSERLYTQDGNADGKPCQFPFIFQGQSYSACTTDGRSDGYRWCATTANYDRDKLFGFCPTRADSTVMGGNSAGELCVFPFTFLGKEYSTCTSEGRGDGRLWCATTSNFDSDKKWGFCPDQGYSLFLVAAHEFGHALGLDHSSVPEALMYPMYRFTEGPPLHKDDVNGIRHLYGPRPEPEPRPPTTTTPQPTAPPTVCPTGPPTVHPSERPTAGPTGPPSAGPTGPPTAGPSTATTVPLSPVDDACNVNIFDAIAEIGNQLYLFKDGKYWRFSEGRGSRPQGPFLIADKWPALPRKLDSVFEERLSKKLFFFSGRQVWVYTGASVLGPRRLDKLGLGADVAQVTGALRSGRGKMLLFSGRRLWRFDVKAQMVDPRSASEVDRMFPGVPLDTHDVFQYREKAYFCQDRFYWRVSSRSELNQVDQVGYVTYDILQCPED
T1 sequence (P22894 99-262): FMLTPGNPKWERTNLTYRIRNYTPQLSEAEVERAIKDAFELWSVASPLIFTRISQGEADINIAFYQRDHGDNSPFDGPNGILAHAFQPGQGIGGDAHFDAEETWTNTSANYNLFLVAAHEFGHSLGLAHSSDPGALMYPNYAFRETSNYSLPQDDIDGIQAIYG

O=C(O)[C@@H](Cc1ccccc1)NS(=O)(=O)c1ccc(-c2ncc(-c3ccc4ccccc4c3)o2)cc1 [Compound A-1]
IC50 [1]: 230 nM
IC50 [2]: 15 nM
IC50 [3]: 1.88 nM
IC50 [4]: 212 nM
melting point: 243 to 245 °C
IC50 [5]: 9.31 nM

O=C(O)CNS(=O)(=O)c1ccc(-c2ncc(-c3ccc(Cl)cc3)s2)cc1 [Compound B-52]
IC50 [1]: 453 nM
IC50 [2]: 29.5 nM
IC50 [3]: 5.55 nM
IC50 [4]: 34.7 nM
IC50 [5]: 2.5 nM

CC(C)[C@@H](NS(=O)(=O)c1ccc(-c2ncc(-c3ccccc3)s2)cc1)C(=O)O [Compound B-2]
IC50 [1]: 15.1 nM
IC50 [2]: 14.5 nM
IC50 [3]: 2.92 nM
IC50 [4]: 13.8 nM
IC50 [5]: 1.83 nM

O=C(O)[C@H](Cc1ccccc1)NS(=O)(=O)c1ccc(-c2ncc(-c3ccc(Cl)cc3)s2)cc1 [Compound B-14]
IC50 [1]: 72.8 nM
IC50 [2]: 11 nM
IC50 [3]: 2.49 nM
IC50 [4]: 19.5 nM
IC50 [5]: 2.56 nM

CC(C)[C@@H](NS(=O)(=O)c1ccc(-c2ncc(-c3ccc4ccccc4c3)o2)cc1)C(=O)O [Compound A-50]
IC50 [1]: 146 nM
IC50 [2]: 11.9 nM
IC50 [3]: 0.699 nM
IC50 [4]: 88.6 nM
IC50 [5]: 4.86 nM

COc1ccc(-c2cnc(-c3ccc(S(=O)(=O)N[C@@H](C(=O)O)C(C)C)cc3)s2)cc1 [Compound B-6]
IC50 [1]: 6.47 nM
IC50 [2]: 1.16 nM
IC50 [3]: 0.37 nM
IC50 [4]: 10 nM
IC50 [5]: 0.347 nM

O=C(O)[C@@H](Cc1ccccc1)NS(=O)(=O)c1ccc(-c2ncc(-c3ccc(F)cc3)s2)cc1 [Compound B-17]
IC50 [1]: 22.4 nM
IC50 [2]: 12.1 nM
IC50 [3]: 3.21 nM
IC50 [4]: 22.6 nM
IC50 [5]: 2.09 nM

COc1ccc(-c2cnc(-c3ccc(S(=O)(=O)N[C@H](Cc4ccccc4)C(=O)O)cc3)s2)cc1 [Compound B-1]
IC50 [1]: 28.2 nM
IC50 [2]: 2.96 nM
IC50 [3]: 3.55 nM
IC50 [4]: 43.8 nM
melting point: 222 to 223 °C
IC50 [5]: 1.29 nM

C[C@@H](NS(=O)(=O)c1ccc(-c2ncc(-c3ccccc3)s2)cc1)C(=O)O [Compound B-21]
IC50 [1]: 58.2 nM
IC50 [2]: 22 nM
IC50 [3]: 5.86 nM
IC50 [4]: 19.9 nM
IC50 [5]: 1.47 nM
